Consider twelve molecules from PubChem BioAssay (NCI).

Among the test systems are MDA-N; OVCAR-8 ovarian; MDA-MB-435; SNB-75 CNS; UACC-62 melanoma; CCRF-CEM leukemia; ACHN renal; RXF 393 renal; SK-MEL-2 melanoma; SNB-19 CNS; NCI-H226 lung.
Assay in all cases: NCI anticancer screen, dose series, 48 h

SMILES strings stand for the structures.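 Following 48 hours of exposure in 96-well plates, responses at five concentrations were used to interpolate endpoints linearly. The concentration for full growth arrest is given as TGI.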 Where a SMILES comes first, the peptide text is derived from it. The star is where a group is joined. Fmoc = O=C(OCC1c2ccccc2-c2ccccc21)*; OtBu = CC(C)(C)O* Where only a bound is given, the exact number is not on record here.

For the molecule `COc1ccc(C(CC2(c3ccc(OC)cc3)SCCCS2)NC(C)=O)cc1` (centres undefined), the TGI in the assay with MDA-N, in the assay on OVCAR-8 ovarian, with MDA-MB-435, in the assay on SNB-75 CNS, in the assay on UACC-62 melanoma and in the assay on CCRF-CEM leukemia was above 100 µM in each case. Also, the TGI with ACHN renal, in the assay on RXF 393 renal, in the assay on SK-MEL-2 melanoma and with SNB-19 CNS was above 100 µM each time.

`CC(C)C(NC(=O)OCC1c2ccccc2-c2ccccc21)C(=O)NC(CCC(=O)OC(C)(C)C)C(=O)OC(C)(C)C` (centres undefined) (Fmoc-Val-Glu(OtBu)-OtBu; configuration not given here): the TGI in the assay with MDA-N, with OVCAR-8 ovarian, in the assay on MDA-MB-435, with SNB-75 CNS, with UACC-62 melanoma and with CCRF-CEM leukemia was above 100 µM each time. For the same molecule, the TGI in the assay on NCI-H226 lung, in the assay with ACHN renal, in the assay on RXF 393 renal and with SNB-19 CNS was above 100 µM in each case.

Regarding `CC(C)[N+]([O-])(CCCNc1c2ccccc2nc2cccc([N+](=O)[O-])c12)C(C)C`, the TGI with MDA-N was determined as 0.137 µM; in the assay with OVCAR-8 ovarian, 0.628 µM; in the assay with MDA-MB-435, 0.0758 µM; with SNB-75 CNS it was 0.629 µM; in the assay on UACC-62 melanoma, 0.356 µM; in the assay with CCRF-CEM leukemia, 1.98 µM. Further, the TGI in the assay with NCI-H226 lung amounted to 2.56 µM; with ACHN renal, 0.44 µM; with RXF 393 renal it was 0.403 µM; in the assay with SK-MEL-2 melanoma, 1.24 µM; in the assay with SNB-19 CNS it was 5.17 µM.

Turning to `CCOC1OC(COC(=O)C(C)(C)C)C(O)CC1n1cc(C)c(=O)[nH]c1=O` (centres undefined), the TGI with MDA-N, in the assay with OVCAR-8 ovarian, in the assay with MDA-MB-435, with SNB-75 CNS, in the assay with UACC-62 melanoma and in the assay with CCRF-CEM leukemia was above 100 µM in each case. Further, the TGI in the assay with NCI-H226 lung, in the assay with ACHN renal, in the assay with RXF 393 renal, in the assay with SK-MEL-2 melanoma and in the assay with SNB-19 CNS was above 100 µM in each case.

Turning to `CC1=NN(c2cccc(Cl)c2)C2(SCC(=O)N2c2nc3ccccc3s2)C1=CC=Cc1ccccc1` (centres undefined), the TGI is above 100 µM in the assay on MDA-N; above 100 µM in the assay on OVCAR-8 ovarian; above 100 µM in the assay with MDA-MB-435; above 100 µM in the assay with CCRF-CEM leukemia; above 100 µM in the assay with NCI-H226 lung; 65.9 µM with ACHN renal. For the same molecule, the TGI with RXF 393 renal worked out at 64.1 µM; in the assay on SK-MEL-2 melanoma it was 59.8 µM.

With `O=C1NC2c3c(I)sc(I)c3C(=O)C2O1` (centres undefined), the TGI in the assay with MDA-N was 9.16 µM; in the assay with OVCAR-8 ovarian it was 9.27 µM; with MDA-MB-435, 17.5 µM; in the assay on SNB-75 CNS, 25.8 µM; in the assay on UACC-62 melanoma, 23.3 µM; in the assay on CCRF-CEM leukemia, 11 µM. In addition, the TGI came to 20.4 µM in the assay with NCI-H226 lung; 7.89 µM in the assay on ACHN renal; 12.7 µM in the assay with RXF 393 renal; 15.3 µM with SK-MEL-2 melanoma; 17.8 µM in the assay on SNB-19 CNS.

Take `CCN1CCC(O)(c2ccc(Oc3ccc(Cl)cc3)cc2)C(C(=O)c2ccc(Oc3ccc(Cl)cc3)cc2)C1` (centres undefined): the TGI was found to be 27 µM with MDA-N; 38.6 µM in the assay on OVCAR-8 ovarian; 38.8 µM in the assay on MDA-MB-435; 26.2 µM in the assay on SNB-75 CNS; 24.8 µM with UACC-62 melanoma; 20.9 µM with CCRF-CEM leukemia. Also, the TGI was found to be 34.5 µM in the assay on NCI-H226 lung; 28.2 µM with ACHN renal; 46.8 µM with RXF 393 renal; 36.9 µM in the assay with SK-MEL-2 melanoma; 29.3 µM in the assay with SNB-19 CNS.

Take `CCOC(=O)C1(C#N)OC(=O)c2cnccc21` (centres undefined): the TGI in the assay with MDA-N, in the assay with OVCAR-8 ovarian, in the assay with MDA-MB-435, in the assay with SNB-75 CNS, in the assay with UACC-62 melanoma and with CCRF-CEM leukemia was above 100 µM each time. Moreover, the TGI in the assay with NCI-H226 lung, in the assay on ACHN renal, with RXF 393 renal, in the assay on SK-MEL-2 melanoma and in the assay on SNB-19 CNS was above 100 µM each time.

Consider `CC(=O)OCCn1cnc2c(NCC=C(C)C)ncnc21`, for which the TGI in the assay on MDA-N, with OVCAR-8 ovarian, in the assay with MDA-MB-435, with SNB-75 CNS, with CCRF-CEM leukemia and with NCI-H226 lung was above 100 µM throughout. In addition, the TGI with ACHN renal, with RXF 393 renal and in the assay on SNB-19 CNS was above 100 µM each time.

For the molecule `C=C(Cl)C(Cl)(CBr)CCC(Br)C(C)(C)Br` (centres undefined), the TGI stood at 21.2 µM in the assay with MDA-N; 13.9 µM in the assay on OVCAR-8 ovarian; 24.5 µM in the assay on MDA-MB-435; 5.45 µM with SNB-75 CNS; 28.5 µM in the assay with UACC-62 melanoma; 23.5 µM in the assay on CCRF-CEM leukemia. For the same molecule, the TGI in the assay with NCI-H226 lung is 37.2 µM; in the assay with ACHN renal it was 5.53 µM; with RXF 393 renal, 4.03 µM; in the assay on SNB-19 CNS it was 23.1 µM.

For `O=C(O)c1ccccc1C(=O)NCC1S(=O)(=O)OCCOS1(=O)=O`, the TGI in the assay with MDA-N, in the assay with OVCAR-8 ovarian, in the assay with MDA-MB-435, in the assay with SNB-75 CNS, in the assay on UACC-62 melanoma and in the assay with CCRF-CEM leukemia was above 100 µM each time. Also, the TGI with NCI-H226 lung, in the assay with ACHN renal, with RXF 393 renal, in the assay with SK-MEL-2 melanoma and with SNB-19 CNS was above 100 µM throughout.

On to `Cc1ccc2c(c1)C(=C(C#N)C#N)CCCS2(=O)=O`, for which the TGI in the assay on MDA-N, with OVCAR-8 ovarian, with MDA-MB-435, in the assay on SNB-75 CNS, with UACC-62 melanoma and in the assay on CCRF-CEM leukemia was above 100 µM each time. Besides, the TGI with NCI-H226 lung, with ACHN renal, in the assay with RXF 393 renal, in the assay with SK-MEL-2 melanoma and in the assay with SNB-19 CNS was above 100 µM each time.
